Measured values: patent US20130059783A1, “COMPOSITIONS AND METHODS FOR EXPANDING BFU-E CELLS” (priority 2010, published 2013)

Test system: mRNA expression in BFU-E cells
Assay: mRNA-Seq of BFU-E cells cultured 4 hours with or without Dex (Table S3)
Format: cell-based, mouse
Details: for Expression level log2((100 nM DEX)* (0 nM DEX)) / Expression of mRNA in BFU-E after 4 h 100 nM DEX (RPKM) / Expression change log2 ((100 nM DEX)/(0 nM DEX))2 / Expression change log2 ((100 nM DEX)/(0 nM DEX)): BFU-E, 4 h; for Expression change log2 ((100 nM DEX)/(0 nM DEX)): 100 nM vs 0 nM DEX
From the text: FIGS. 2A-2B. The effect of glucocorticoids on miRNA and mRNA expression in BFU-E cells determined by next generation sequencing. […] Both mRNAs and miRNAs were subjected to Illumina deep sequencing. […] (B) A plot similar to that in A for expression of individual mRNAs. mRNA expression was normalized using the RPKM method, which determines the relative expression of each gene to all expressed genes by giving each gene an RPKM count (number of uniquely aligning reads per kb exon per million total reads). […]
To minimize the risk of false positive GC target genes we chose to compare only highly expressed genes (≈10,000 genes with a multiplied RPKM count >4) (Mortazavi et al., 2008).
Samples for Paired-End mRNA-Seq were prepared using the Solexa kit according to the manufacturer's instructions with the exception that we extracted 300 bp bands, before and after the PCR step (Illumina). Images acquired from the Solexa sequencer were processed through the bundled Solexa image extraction pipeline version 1.4. mRNA-Seq reads were aligned to mouse NCBI build 37 (mm9) using ELAND, Briefly, the first 32 bases of a read were used as a seed. Each matched seed was then extended up to 36 bases and scored to break any ties between multi-matches. For mRNA expression counts, unique reads in the genome that landed within any exons of NCBI gene models (v37.1) were counted. The counts were normalized by the mRNA length to get the final RPKM values (i.e. reads per KB per million reads).

C[C@@H]1C[C@H]2[C@@H]3CCC4=CC(=O)C=C[C@]4(C)[C@@]3(F)[C@@H](O)C[C@]2(C)[C@@]1(O)C(=O)CO [Dex, dexamethasone]
Expression level log2((100 nM DEX)* (0 nM DEX)) (gene Kit): 12.13 | Expression of mRNA in BFU-E after 4 h 100 nM DEX (RPKM) (gene Kit): 97.02 RPKM | Expression level log2((100 nM DEX)* (0 nM DEX)) (gene Klf9): 4.86 | Expression of mRNA in BFU-E after 4 h 100 nM DEX (RPKM) (gene Klf9): 8.07 RPKM | Expression change log2 ((100 nM DEX)/(0 nM DEX))2 (gene Klf13): 1.37 | Expression level log2((100 nM DEX)* (0 nM DEX)) (gene Klf13): 8.41 | Expression of mRNA in BFU-E after 4 h 100 nM DEX (RPKM) (gene Klf13): 29.57 RPKM | Expression of mRNA in BFU-E after 4 h 100 nM DEX (RPKM) (gene Lama5): 3.90 RPKM | Expression change log2 ((100 nM DEX)/(0 nM DEX))2 (gene Lrfn1): 1.05 | Expression level log2((100 nM DEX)* (0 nM DEX)) (gene Lrfn1): 2.45 | Expression of mRNA in BFU-E after 4 h 100 nM DEX (RPKM) (gene Lrfn1): 3.37 RPKM | Expression of mRNA in BFU-E after 4 h 100 nM DEX (RPKM) (gene Maff): 6.11 RPKM | Expression change log2 ((100 nM DEX)/(0 nM DEX)) (gene Maff): 2.58 | Expression level log2((100 nM DEX)* (0 nM DEX)) (gene Man2a2): 9.07 | Expression of mRNA in BFU-E after 4 h 100 nM DEX (RPKM) (gene Man2a2): 35.22 RPKM | Expression level log2((100 nM DEX)* (0 nM DEX)) (gene Mobkl2c): 5.14 | Expression of mRNA in BFU-E after 4 h 100 nM DEX (RPKM) (gene Mobkl2c): 8.65 RPKM | Expression of mRNA in BFU-E after 4 h 100 nM DEX (RPKM) (gene Mt2): 1306.42 RPKM | Expression change log2 ((100 nM DEX)/(0 nM DEX))2 (gene Nags): 1.02 | Expression level log2((100 nM DEX)* (0 nM DEX)) (gene Nags): 2.04 | Expression of mRNA in BFU-E after 4 h 100 nM DEX (RPKM) (gene Nags): 2.88 RPKM | Expression of mRNA in BFU-E after 4 h 100 nM DEX (RPKM) (gene Ncoa7): 7.54 RPKM | Expression change log2 ((100 nM DEX)/(0 nM DEX))2 (gene Nfkbia): 1.36 | Expression level log2((100 nM DEX)* (0 nM DEX)) (gene Nfkbia): 4.55 | Expression of mRNA in BFU-E after 4 h 100 nM DEX (RPKM) (gene Nfkbia): 7.75 RPKM | Expression of mRNA in BFU-E after 4 h 100 nM DEX (RPKM) (gene Nhej1): 4.51 RPKM | Expression level log2((100 nM DEX)* (0 nM DEX)) (gene Nrgn): 7.68 | Expression of mRNA in BFU-E after 4 h 100 nM DEX (RPKM) (gene Nrgn): 21.01 RPKM | Expression of mRNA in BFU-E after 4 h 100 nM DEX (RPKM) (gene Per1): 23.34 RPKM | Expression change log2 ((100 nM DEX)/(0 nM DEX)) (gene Per1): 2.30 | Expression of mRNA in BFU-E after 4 h 100 nM DEX (RPKM) (gene Pex11a): 5.87 RPKM | Expression of mRNA in BFU-E after 4 h 100 nM DEX (RPKM) (gene Pfkfb4): 12.25 RPKM | Expression change log2 ((100 nM DEX)/(0 nM DEX)) (gene Pfkfb4): 2.47 | Expression level log2((100 nM DEX)* (0 nM DEX)) (gene Pld6): 2.64 | Expression of mRNA in BFU-E after 4 h 100 nM DEX (RPKM) (gene Pld6): 3.65 RPKM | Expression of mRNA in BFU-E after 4 h 100 nM DEX (RPKM) (gene Plk3): 5.75 RPKM | Expression change log2 ((100 nM DEX)/(0 nM DEX)) (gene Plk3): 1.76 | Expression level log2((100 nM DEX)* (0 nM DEX)) (gene Polr3gl): 3.89 | Expression of mRNA in BFU-E after 4 h 100 nM DEX (RPKM) (gene Polr3gl): 5.93 RPKM | Expression level log2((100 nM DEX)* (0 nM DEX)) (gene Rab3il1): 3.44 | Expression of mRNA in BFU-E after 4 h 100 nM DEX (RPKM) (gene Rab3il1): 4.94 RPKM | Expression level log2((100 nM DEX)* (0 nM DEX)) (gene Rapgef2): 2.18 | Expression of mRNA in BFU-E after 4 h 100 nM DEX (RPKM) (gene Rapgef2): 3.28 RPKM | Expression of mRNA in BFU-E after 4 h 100 nM DEX (RPKM) (gene Rcsd1): 8.11 RPKM | Expression change log2 ((100 nM DEX)/(0 nM DEX)) (gene Rcsd1): 1.68 | Expression level log2((100 nM DEX)* (0 nM DEX)) (gene Rps6ka1): 9.31 | Expression of mRNA in BFU-E after 4 h 100 nM DEX (RPKM) (gene Rps6ka1): 39.02 RPKM | Expression of mRNA in BFU-E after 4 h 100 nM DEX (RPKM) (gene Serpina3g): 36.06 RPKM | Expression change log2 ((100 nM DEX)/(0 nM DEX)) (gene Serpina3g): 2.06 | Expression of mRNA in BFU-E after 4 h 100 nM DEX (RPKM) (gene Slc30a10): 7.11 RPKM | Expression level log2((100 nM DEX)* (0 nM DEX)) (gene Slc44a2): 9.19 | Expression of mRNA in BFU-E after 4 h 100 nM DEX (RPKM) (gene Slc44a2): 35.91 RPKM | Expression of mRNA in BFU-E after 4 h 100 nM DEX (RPKM) (gene Socs1): 34.03 RPKM | Expression change log2 ((100 nM DEX)/(0 nM DEX)) (gene Socs1): 2.74 | Expression level log2((100 nM DEX)* (0 nM DEX)) (gene Spry1): 5.36 | Expression of mRNA in BFU-E after 4 h 100 nM DEX (RPKM) (gene Spry1): 9.31 RPKM | Expression of mRNA in BFU-E after 4 h 100 nM DEX (RPKM) (gene St3gal2): 23.29 RPKM | Expression of mRNA in BFU-E after 4 h 100 nM DEX (RPKM) (gene Syne1): 7.36 RPKM | Expression change log2 ((100 nM DEX)/(0 nM DEX))2 (gene Tle4): 1.29 | Expression level log2((100 nM DEX)* (0 nM DEX)) (gene Tle4): 6.76 | Expression of mRNA in BFU-E after 4 h 100 nM DEX (RPKM) (gene Tle4): 16.27 RPKM | Expression of mRNA in BFU-E after 4 h 100 nM DEX (RPKM) (gene Tns1): 20.01 RPKM | Expression of mRNA in BFU-E after 4 h 100 nM DEX (RPKM) (gene Tph1): 5.51 RPKM | Expression level log2((100 nM DEX)* (0 nM DEX)) (gene Trib2): 4.11 | Expression of mRNA in BFU-E after 4 h 100 nM DEX (RPKM) (gene Trib2): 6.12 RPKM | Expression of mRNA in BFU-E after 4 h 100 nM DEX (RPKM) (gene Tsc22d3): 19.83 RPKM | Expression level log2((100 nM DEX)* (0 nM DEX)) (gene Txnip): 8.13 | Expression of mRNA in BFU-E after 4 h 100 nM DEX (RPKM) (gene Txnip): 24.97 RPKM | Expression of mRNA in BFU-E after 4 h 100 nM DEX (RPKM) (gene Wdr21): 48.20 RPKM | Expression change log2 ((100 nM DEX)/(0 nM DEX))2 (gene Wdr60): 1.05 | Expression level log2((100 nM DEX)* (0 nM DEX)) (gene Wdr60): 5.00 | Expression of mRNA in BFU-E after 4 h 100 nM DEX (RPKM) (gene Wdr60): 8.14 RPKM | Expression change log2 ((100 nM DEX)/(0 nM DEX))2 (gene Zbtb16): 1.30 | Expression level log2((100 nM DEX)* (0 nM DEX)) (gene Zbtb16): 3.93 | Expression of mRNA in BFU-E after 4 h 100 nM DEX (RPKM) (gene Zbtb16): 6.14 RPKM | Expression of mRNA in BFU-E after 4 h 100 nM DEX (RPKM) (gene Zfp1): 5.67 RPKM | Expression change log2 ((100 nM DEX)/(0 nM DEX)) (gene Zfp1): 2.96 | Expression level log2((100 nM DEX)* (0 nM DEX)) (gene Zfp36l2): 13.36 | Expression of mRNA in BFU-E after 4 h 100 nM DEX (RPKM) (gene Zfp36l2): 163.74 RPKM | Genes upregulated 50% or more (multiplied RPKM count greater than zero): 395 genes
